Measurements from patent US20090105149A1, “Compounds comprising lpa” (ENKAM PHARMACEUTICALS A/S, priority 2003, published 2009).
Marks after values point to notes of the source that are not given here.

Key:
rats = assay: Open Field test in normal rats; format: in vivo, rat; conditions: additional experiments
[1] = system: cerebellar granule neurons (CGN); assay: Neurite outgrowth, cerebellar granule neurons; format: cell-based, rat; conditions: 24 h
Method: The cultures were subsequently immunostained for tyrosine hydroxylase. Hippocampal neurons and CGN were plated at a density of 10,000 cells/cm^2 on 8-well permanox chamber slides and incubated for 24 hours in the presence of various concentrations of FGLd. Subsequently the neurons were immunostained for GAP-43. Results from at least five independent experiments for each neuronal culture are shown as percentage ±SEM with the untreated controls set at 100%. *p<0.05, **p<0.01, ***p<0.001 when compared to the controls.
Peptide solutions without or with inhibitors of various signal transduction pathways were added to a total volume of 300 μl/cm^2, and the slides were incubated at 37° C. After 24 hours, the neurons were fixed with 4% (v/v) formaldehyde for 20 minutes and thereafter immunostained using primary rabbit antibodies against GAP-43 and Alexa Fluor secondary goat anti-rabbit antibodies. Images of at least 200 neurons for each group in each individual experiment were obtained systematically by using computer assisted fluorescence microscopy as previously described (Rønn et al., 2000 op. cit.). Briefly, a Nikon Diaphot inverted microscope with a Nikon Plan 20× objective (Nikon, Tokyo, Japan) coupled to a video camera (Grundig Electronics, Germany) was used for recordings. The same software package as described above for the dopaminergic neurite outgrowth assay was used to process the recorded images.

[2] = system: organotypic hippocampal neuronal slice cultures (OHSC); assay: OGD, propidium iodide staining of OHSC; format: cell-based, rat
Source text: (§1) In the present study it was investigated the effect of the FGL peptide on synaptic plasticity, neuronal function and vulnerability following oxygen and glucose deprivation (OGD) in organotypic hippocampal neuronal slice cultures (OHSC) from 7-day-old Wistar rats according to method of Stoppini et al. (1991) Neurosci Methods. 37:173-82 and primary cultures of dissociated hippocampal neurons from 1-day-old rats according to method of Maar et al. (1997) J Neurosci Res. 47:163-72. Primary cell cultures were maintained for 11-12 days and OHSC for 12-14 days prior to adding FGLd.
The primary cell cultures and OHSC were exposed to OGD for 10 and 20 minutes. Following OGD, the cultures were again supplied with oxygen and glucose and analysed at 1, 4 or 24 hour time point after introduction of OGD exposure. FGLd (or the control peptide FGLc) was added 24 hr before, immediately, or 1 hr or 24 hr after OGD. When administered prior to OGD, FGLd was removed from the medium when introducing OGD. In some cases, the slice cultures were treated with FGLd only at 4 hr after OGD. In addition, the FGFR inhibitor, SU5402 (25 μM), was added together with FGLd in some of the set-ups.
(§2) In hippocampal neuronal cultures, FM 1-43 staining was used to evaluate pre-synaptic function (described above). Cell viability in both primary cell cultures and OHSC was measured using the […] [3-(4,5-dimethylthiazol-2-yl)-2,5-diphenyltetrazolium bromide] assay according to Malich et al, (1997) Toxicology. 124:179-92. In, addition, cell viability in OHSC was measured using propidium iodide (PI) staining according to Laake et al. (1999) Brain Res Brain Res Protoc. 4:173-84.

[3] = system: organotypic hippocampal neuronal slice cultures (OHSC); assay: OGD, metabolic activity (MTS) in organotypic hippocampal slice cultures; format: cell-based, rat
Source text: as §1
The primary cell cultures and OHSC were exposed to OGD for 10 and 20 minutes. Following OGD, the cultures were again supplied with oxygen and glucose and analysed at 1, 4 or 24 hour time point after introduction of OGD exposure. FGLd (or the control peptide FGLc) was added 24 hr before, immediately, or 1 hr or 24 hr after OGD. […]
as §2, with “124:179-92.” left out, “4:173-84.” left out

Erk1/2 = assay: PACE assay, phosphorylation of Erk1/2 in CGN; format: cell-based, rat
Method: The total number of neurons was estimated using crystal violet staining. Results from at least three independent experiments are expressed as percentage ±SEM with untreated cultures set at 100%. *p<0.05 and **p<0.01 when compared to the controls.
Detection of phosphorylated Erk1/2 and Akt relative to the total number of CGN is carried out according to Versteeg et al. (2000) FEBS Lett. 465:69-73. For the experiments CGN were plated at a density of 290,000 cells/cm^2 in poly-L-lysine coated 96-well microtiter plates. […] 24 hours after plating, Ara-C was added to the cultures as described above. After 72 hours of incubation, half of the medium was replaced with Neurobasal-A medium containing the peptide to be tested. For the Erk1/2 phosphorylation assay, the cultures were further incubated for 0-90 minutes, centrifuged at 70 g for 8 minutes, fixed with 4% (v/v) formaldehyde and immunostained using primary phospho-p42-44 rabbit antibodies and peroxidase-conjugated anti-rabbit secondary antibodies. For the detection of phosphorylated Akt, the cultures were further incubated for 10 or 30 minutes, centrifuged at 70 g for 8 minutes, fixed with 4% (v/v) formaldehyde and immunostained using polyclonal antibodies against Akt phosphorylated at Ser473 and peroxidase-conjugated secondary antibodies. […]

Substance: FGLd: MAP-type dendrimer of FGL; dendrimeric tetramer of the FGL peptide (EVYVVAENQQGKSKA)
- emotional or locomotor behaviour (rats): did not influence emotional or locomotor behaviour
- Effect on Neurite Length (Percent Increase vs. Control) ([1]; CGN PND 2-4, 9 μg/mL): 24%**
- Effect on Neurite Length (Percent Increase vs. Control) ([1]; CGN PND 5-8, 3 μg/mL): 30%
- Effect on Neurite Length (Percent Increase vs. Control) ([1]; CGN PND 5-8, 9 μg/mL): 93%
- Effect on Neurite Length (Percent Increase vs. Control) ([1]; CGN PND 5-8, 10 μg/mL): 37%
- Effect on Neurite Length (Percent Increase vs. Control) ([1]; CGN PND 5-8, 25 μg/mL): 79%
- Effect on Neurite Length (Percent Increase vs. Control) ([1]; CGN PND 5-8, 27 μg/mL): 121%
- Effect on Neurite Length (Percent Increase vs. Control) ([1]; CGN PND 5-8, 50 μg/mL): 179%
- Effect on Neurite Length (Percent Increase vs. Control) ([1]; CGN PND 5-8, 100 μg/mL): 96%
- maximal stimulation of neurite outgrowth, CGN ([1]; at 50 μg/ml, untreated control = 100%): 255%
- PI staining (cell damage) after 10 minutes of OGD ([2]; slices pre-treated for 24 hours): almost completely abolished
- PI staining (cell damage) after 10 minutes of OGD ([2]; treated immediately after OGD): Cell damage was also avoided
- PI staining (cell damage) after 10 minutes of OGD ([2]; treatment delayed until 4 hours after OGD): not if FGLd treatment was delayed until 4 hours after OGD
- metabolic activity (MTS), treatment alone ([3]; no OGD): led to an increase in metabolic activity
- metabolic activity (MTS) after OGD ([3]; treated 24 hours prior to OGD, 1 h and 24 h after OGD): caused a normalization of the metabolic activity
- phosphorylation of Erk1/2 (Erk1/2; 5 μg/ml): unable to induce phosphorylation of Erk1/2
- phosphorylation of Erk1/2 (Erk1/2; 10 μg/ml, from 10 to at least 90 minutes, control cultures = 100%): 115-120%
